Laboratory results taken from PMC7904550, “Application of grouping and read-across for the evaluation of parabens of different chain lengths with a particular focus on endocrine properties” (Archives of Toxicology, 2021).

Legend:
bacteria = details: cited from earlier work
Wistar rats [1] = test: Prenatal developmental toxicity study (OECD TG 414); format: in vivo, rat; details: for NOAEL, developmental toxicity: OECD 414 v 2001, oral gavage
From the text: (§1) Healthy and specific pathogen-free male and female (non-pregnant and nulliparous) Wistar Crl: WI(Han) rats were obtained from Charles River Laboratories (Germany). […] Upon arrival at BSL BIOSERVICE, the animals underwent an acclimatisation period of at least 5 days, and they were approximately 15–16 weeks old at the onset of the treatment period.

rats = details: read-across from MP; ref ECHA dissemination portal; cited from earlier work
Wistar rats [2] = test: Reproductive toxicity screening study (OECD TG 421); format: in vivo, rat; details: for NOAEL, reproductive toxicity: OECD 421 v 2016 oral gavage (& historical OECD 422 feeding study)
Experimental: Healthy and specific pathogen-free male and female (non-pregnant and nulliparous) Wistar Crl: WI(Han) rats were obtained from Charles River Laboratories (Germany). The animals were housed in an air-conditioned room (temperature: 22 ± 3 °C; relative humidity: 55 ± 10%; artificial light, light–dark cycle: 12 h–12 h; air change: 10 times/h). Housing was in groups of 5 animals/sex/cage in individually ventilated Type IV polysulphone cages on Altromin saw fibre bedding with free access to both Altromin 1324 maintenance diet for rats and mice and tap water. Upon arrival at BSL BIOSERVICE, the animals underwent an acclimatisation period of at least 5 days, and they were approximately 15–16 weeks old at the onset of the treatment period. […]

mammalian cells = details: cited from earlier work
Wistar rats [3] = test: Extended one-generation reproductive toxicity study (OECD TG 443); format: in vivo, rat; details: for NOAEL, EOGRTS: developmental and reproductive toxicity: OECD 443 v 2018, oral gavage
From the text: as §1

CCCOC(=O)c1ccc(O)cc1 [Propyl paraben, Propyl 4-hydroxybenzoate]
Mutagenicity in bacteria classification (bacteria): Not mutagenic [c] (OECD 471; 2018) | NOAEL, developmental toxicity (Wistar rats [1]): NOAEL: 1000 (OECD 414; v 2001) mg/kg body weight/day | NOAEL, developmental toxicity (Wistar rats [1]; listed as propyl paraben): 1000 mg/kg body weight/day | Gestation length (Wistar rats [1]; OECD TG 414): n.a. / NAE | NOAEL: No. of foetal deaths; viable foetuses (Wistar rats [1]; OECD TG 414): 1000 mg/kg bw/day | No. of implantations, corpora lutea (Wistar rats [1]; OECD TG 414): NAE / NAE | No. of live births (Wistar rats [1]; OECD TG 414): NAE / NAE | Postimplantation loss (Wistar rats [1]; OECD TG 414): NAE / NAE | Pre-implantation loss (Wistar rats [1]; OECD TG 414): NAE / NAE | Uterus weight (with cervix) (Wistar rats [1]; OECD TG 414): NAE / NAE | Thyroid HP (Wistar rats [1]; dams): NAE / NAE (dams) | Thyroid stimulating hormone level (Wistar rats [1]; dams): NAE / NAE (dams) | Thyroid weight (Wistar rats [1]; dams): NAE / NAE (dams) | Triiodothyronine / thyroxine level (Wistar rats [1]; dams): NAE / NAE (dams) | Anogenital distance (Wistar rats [1]; foetus): NAE / NAE | Foetal development (Wistar rats [1]; foetus): NAE / NAE | Litter size (Wistar rats [1]; foetus): NAE / NAE | No. of foetal deaths; viable foetuses (Wistar rats [1]; foetus): NAE / NAE | Presence of anomalies (external, visceral, skeletal) (Wistar rats [1]; foetus): NAE / NAE | Treatment-related effects in dams or pups (Wistar rats [1]; implantation throughout pregnancy): No treatment-related effects | Genetic toxicity in vivo (rats) classification (rats): Not clastogenic (read-across from MP) | NOAEL, reproductive toxicity (Wistar rats [2]): NOAEL: 1000 (OECD 421; v 2016 & OECD 422 [b]) mg/kg body weight/day | NOAEL, reproductive toxicity (Wistar rats [2]; listed as propyl paraben): 1000 mg/kg body weight/day | Treatment-related effects in parental animals or pups (Wistar rats [2]; OECD TG 421): no treatment-related effects | Accessory sex organs HP (Wistar rats [2]; P0, F1): n. a. / NAE | Anogenital distance (Wistar rats [2]; P0, F1): n. a. / NAE | Coagulating gland weight (Wistar rats [2]; P0, F1): n. a. / NAE | Dystocia (Wistar rats [2]; P0, F1): n. a. / NAE | Epididymis HP (Wistar rats [2]; P0, F1): n. a. / NAE | Epididymis weight (Wistar rats [2]; P0, F1): n. a. / NAE | Fertility (Wistar rats [2]; P0, F1): n. a. / NAE | Foetal development (Wistar rats [2]; P0, F1): n. a. / NAE | Gestation length (Wistar rats [2]; P0, F1): n. a. / NAE | Litter size (Wistar rats [2]; P0, F1): n. a. / NAE | Litter viability (Wistar rats [2]; P0, F1): n. a. / NAE | Nipple development (Wistar rats [2]; P0, F1): n. a. / NAE | No. of implantations, corpora lutea (Wistar rats [2]; P0, F1): n. a. / NAE | No. of live births (Wistar rats [2]; P0, F1): n. a. / NAE | Oestrus cyclicity (Wistar rats [2]; P0, F1): n. a. / NAE | Ovary HP (Wistar rats [2]; P0, F1): n. a. / NAE | Postimplantation loss (Wistar rats [2]; P0, F1): n. a. / NAE | Pre-implantation loss (Wistar rats [2]; P0, F1): n. a. / NAE | Presence of anomalies (external, visceral, skeletal) (Wistar rats [2]; P0, F1): n. a. / NAE | Prostate HP (Wistar rats [2]; P0, F1): n. a. / NAE | Prostate weight (Wistar rats [2]; P0, F1): n. a. / NAE | Reproduction (Wistar rats [2]; P0, F1): n. a. / NAE | Seminal vesicles weight (Wistar rats [2]; P0, F1): n. a. / NAE | Testis HP (Wistar rats [2]; P0, F1): n. a. / NAE | Testis weight (Wistar rats [2]; P0, F1): n. a. / NAE | Thyroid stimulating hormone level (Wistar rats [2]; P0, F1): n. a. / NAE | Time to mating (Wistar rats [2]; P0, F1): n. a. / NAE | Triiodothyronine / thyroxine level (Wistar rats [2]; P0, F1): n. a. / NAE | Vaginal smears (Wistar rats [2]; P0, F1): n. a. / NAE | Mutagenicity in mammalian cells classification (mammalian cells): Not mutagenic [c] (OECD 476; 2012) | Developmental immunotoxicity (DIT) (Wistar rats [3]; DIT cohort): did not exhibit | Developmental neurotoxicity (DNT) (Wistar rats [3]; DNT cohort): did not exhibit DNT | NOAEL, EOGRTS: developmental and reproductive toxicity (Wistar rats [3]): NOAEL: 1000 (OECD 443; v 2018) mg/kg body weight/day | NOAEL, EOGRTS: developmental and reproductive toxicity (Wistar rats [3]; listed as propyl paraben): 1000 mg/kg body weight/day | Accessory sex organs HP (Wistar rats [3]; P0, F1, (F2)): NAE / NAE | Adrenals HP (Wistar rats [3]; P0, F1, (F2)): NAE / NAE | Adrenals weight (Wistar rats [3]; P0, F1, (F2)): NAE / NAE | Age at balano-preputial separation (Wistar rats [3]; P0, F1, (F2)): NAE / NAE | Age at vaginal opening (Wistar rats [3]; P0, F1, (F2)): NAE / NAE | Anogenital distance (Wistar rats [3]; P0, F1, (F2)): NAE / NAE | Auditory startle (Wistar rats [3]; P0, F1, (F2)): NAE / NAE | Brain HP (Wistar rats [3]; P0, F1, (F2)): NAE / NAE | Brain morphometric evaluation (Wistar rats [3]; P0, F1, (F2)): NAE / NAE | Brain weight (Wistar rats [3]; P0, F1, (F2)): NAE / NAE | Cervix HP (Wistar rats [3]; P0, F1, (F2)): NAE / NAE | Coagulating gland HP (Wistar rats [3]; P0, F1, (F2)): NAE / NAE | Coagulating gland weight (Wistar rats [3]; P0, F1, (F2)): NAE / NAE | Colloid area (thyroid HP) (Wistar rats [3]; P0, F1, (F2)): NAE / NAE | Dystocia (Wistar rats [3]; P0, F1, (F2)): NAE / NAE | Epididymis HP (Wistar rats [3]; P0, F1, (F2)): NAE / NAE | Epididymis weight (Wistar rats [3]; P0, F1, (F2)): NAE / NAE | Fertility (Wistar rats [3]; P0, F1, (F2)): NAE / NAE | Foetal development (Wistar rats [3]; P0, F1, (F2)): NAE / NAE | Functional observation battery (Wistar rats [3]; P0, F1, (F2)): NAE [h] / NAE | Gestation length (Wistar rats [3]; P0, F1, (F2)): NAE / NAE | Litter size (Wistar rats [3]; P0, F1, (F2)): NAE / NAE | Litter viability (Wistar rats [3]; P0, F1, (F2)): NAE / NAE | Liver weight (Wistar rats [3]; P0, F1, (F2)): NAE / NAE | Mammary gland HP; females (Wistar rats [3]; P0, F1, (F2)): NAE / NAE | Mammary gland HP; males (Wistar rats [3]; P0, F1, (F2)): NAE / NAE | Motor activity (Wistar rats [3]; P0, F1, (F2)): NAE / NAE | Nipple development (Wistar rats [3]; P0, F1, (F2)): NAE / NAE | No. of implantations, corpora lutea (Wistar rats [3]; P0, F1, (F2)): NAE / NAE | No. of live births (Wistar rats [3]; P0, F1, (F2)): NAE / NAE | No. of ovarian follicles (Wistar rats [3]; P0, F1, (F2)): NAE / NAE | Oestrus cyclicity (Wistar rats [3]; P0, F1, (F2)): NAE / NAE | Offspring: learning & memory (Wistar rats [3]; P0, F1, (F2)): NAE / NAE | Ovary HP (Wistar rats [3]; P0, F1, (F2)): NAE / NAE | Ovary weight (Wistar rats [3]; P0, F1, (F2)): NAE / NAE | Oviduct HP (Wistar rats [3]; P0, F1, (F2)): NAE / NAE | Pituitary HP (Wistar rats [3]; P0, F1, (F2)): NAE / NAE | Pituitary weight (Wistar rats [3]; P0, F1, (F2)): NAE / NAE | Postimplantation loss (Wistar rats [3]; P0, F1, (F2)): NAE / NAE | Presence of anomalies (external, visceral, skeletal) (Wistar rats [3]; P0, F1, (F2)): NAE / NAE | Prostate HP (Wistar rats [3]; P0, F1, (F2)): NAE / NAE | Prostate weight (Wistar rats [3]; P0, F1, (F2)): NAE / NAE | Pup development (Wistar rats [3]; P0, F1, (F2)): NAE / NAE | Reproduction (Wistar rats [3]; P0, F1, (F2)): NAE / NAE | Seminal vesicles HP (Wistar rats [3]; P0, F1, (F2)): NAE / NAE | Seminal vesicles weight (Wistar rats [3]; P0, F1, (F2)): NAE / NAE | Sperm morphology (Wistar rats [3]; P0, F1, (F2)): NAE / NAE | Sperm motility (Wistar rats [3]; P0, F1, (F2)): NAE / NAE | Sperm numbers (Wistar rats [3]; P0, F1, (F2)): NAE / NAE | Testis HP (Wistar rats [3]; P0, F1, (F2)): NAE / NAE | Testis weight (Wistar rats [3]; P0, F1, (F2)): NAE / NAE | Thyroid HP (Wistar rats [3]; P0, F1, (F2)): NAE / NAE | Thyroid stimulating hormone level (Wistar rats [3]; P0, F1, (F2)): NAE / NAE | Thyroid weight (Wistar rats [3]; P0, F1, (F2)): NAE / NAE | Time to mating (Wistar rats [3]; P0, F1, (F2)): NAE / NAE | Triiodothyronine / thyroxine level (Wistar rats [3]; P0, F1, (F2)): NAE / NAE | Uterus HP (with cervix) (Wistar rats [3]; P0, F1, (F2)): NAE / NAE | Uterus weight (with cervix) (Wistar rats [3]; P0, F1, (F2)): NAE / NAE | Vagina HP (Wistar rats [3]; P0, F1, (F2)): NAE / NAE | Vaginal smears (Wistar rats [3]; P0, F1, (F2)): NAE / NAE | Anogenital distance, female pups PND 0 (Wistar rats [3]; all dose groups, within historical control, assessed as not toxicologically relevant): minimal lower absolute and relative anogenital distance | Clinical biochemistry parameters (Wistar rats [3]; parental animals, assessed as not toxicologically relevant): few marginal but statistically significant differences | Thyroid stimulating hormone (Wistar rats [3]; parental females (and F1 males) of high dose group, assessed as not toxicologically relevant): slight but statistically significantly higher group mean thyroid stimulating hormone values | Alterations of the parameters addressed in OECD TG 443 (Wistar rats [3]; up to 1000 mg/kg bw/day): no toxicologically relevant alterations | Local reactions after gavage (Wistar rats [3]; without toxicological relevance): Transient increased salivation
